No end group written: not given here.
How the values were obtained:
AN3CA cells = assay: In vivo metastasis assay (retro-orbital injection) in NOD/SCID mice; conditions: 6 weeks after injection
Procedure: All experimental procedures involving animals were conducted in accordance with the institutional guidelines set forth by the Children's Hospital Boston (CHB animal protocol number 11-09-2022). Eight to ten-week-old NOD/SCID mice were housed in a specific pathogen-free facility. To generate a xenograft mouse model, NOD/SCID mice were injected with 2×10^6 cells into right flanks. Cells were resuspended in 0.1 ml of PBS and then mix with 0.1 ml of matrigel. Two cell lines were prepared for xenografts: AN3CA and HEC-1A. Tumor sizes were measured weekly. As for metastasis mouse model, 1×10^6 AN3CA cells—were injected via the retro-orbital sinus as described previously (2). […] Cell proliferation in tumor was determined by staining histological sections with monoclonal antibody against Ki-67 (BD, Cat. No. 556003), and apoptosis was evaluated by terminal uridine deoxynucleotidyl transferase dUTP nick end labeling (TUNEL) assay (in situ cell death detection kit, Promega, Cat. No. G3250) according to manufacturer's protocol.
Next assessed was whether loss of SALL4 could affect tumor invasiveness. […] The invasive potential of these three cell lines in vitro: AN3CA, HEC-1A and Ishikawa cells was compared, and a strong association between SALL4 expression and invasive capacity was detected, with Ishikawa showing the least migration/invasion ability (data not shown). […]

SNU-398 = assay: Cellular uptake of FITC-labeled peptide; assay type: cell-based, human; conditions: SNU-398, with Chariot
Procedure: (§1) Cells were grown typically in 6 well plates (35 mm dish) to 50-70% confluence. Usually the transfect ion efficiency is somehow cell type specific. 2 mM peptide was diluted 4 times in PBS (2 ul+6 ul) (For FITC peptidedo not dilute the 2 mM stock). For each transfection reaction tube with 100 ul PBS+1 ul diluted peptide was set up. Chariot reagent was diluted 1:10 in ddH2O and for each transfection a 94 ul H2O tube+6 ul diluted Chariot was prepared (No master mix for more than 4 transfections). The 2 tubes were carefully mixed by pipetting up and down and incubated 30 min. at room temperature. Medium was aspirated from the dish (well) and cells were overlay with the mix. 400 ul serum free medium was added and cells were incubated further for 1 h 37 C (cell incubator). 500 ul complete medium (with 10% serum) was finally added. If cells are not very sensitive to serum starvation (cancer cell lines) 5% serum could be used.
(§2) Fluorescent and Confocal microscopy was performed on cells treated with FITC labeled peptides with or without of transfection reagent depending on the cell type. Cells were mounted on cover slips using mounting media with DAPI (Invitrogen) and in some cases cytoskeleton dye (Invitrogen).
(§3) In order to evaluate their cellular uptake and localization, the N terminus of these peptides was labeled with fluorescein isothiocyanate (FITC). Despite the net positive charge of these peptides, their uptake by the cells is cell-type specific. Some cell lines such as HL-60 (an AML cell line) allowed the peptide to enter the cells without any modification or carrier, and some cell lines were not penetrable at all. In order to achieve a similar level of peptide delivery in most cell types, a Chariot Transfection Reagent (Active Motif) was used as a peptide carrier, as directed from the manufacturer. All cell types used in the study described herein were subjected to individual evaluation of the percentage of the cells in which the peptide was delivered as well as the duration of time during which they sustained the labeled peptide in the cells. After Chariot treatment, confocal microscopy studies confirmed uptake of these peptides throughout the cell, including nuclei (as evidenced by DAPI overlay, FIG. 1B).
Next tested was the cellular uptake and localization of these peptides in various types of cells using FITC-labeled wild type or scrambled peptides. Despite the net positive charge of these peptides, their penetration into cells is cell type-specific. Some cell lines, such as HL-60 (an AML cell line), allowed peptide entry without any modification or facilitator, while others such as SNU-398 were not penetrable at all. […] The overall success rate of peptide uptake by the cells was above 95% with Pep-1, as evaluated by flow cytometry (FIG. 9A). […]

AML = assay: Cellular uptake of FITC-labeled peptide; assay type: cell-based, human; conditions: with Chariot
Procedure: as §1, §2, §3

SNU387 = assay: Cellular uptake of FITC-labeled peptide; assay type: cell-based, human; conditions: SNU387, with Chariot
Procedure: as §1, §2, §3

HuH-7 = assay: Cellular uptake of FITC-labeled peptide; assay type: cell-based, human; conditions: HuH-7, with Chariot
Procedure: as §1, §2, §3

HL60 = assay: Cellular uptake of FITC-labeled peptide; assay type: cell-based, human; conditions: HL60, no carrier
Procedure: as §1, §2, §3

CD34+ = assay: Cellular uptake of FITC-labeled peptide; assay type: cell-based; conditions: with Chariot
Procedure: as §1, §2, §3

MCF7 = assay: Cellular uptake of FITC-labeled peptide; assay type: cell-based; conditions: MCF7, with Chariot
Procedure: as §1, §2, §3

KG1a = assay: Cellular uptake of FITC-labeled peptide; assay type: cell-based; conditions: no carrier
Procedure: as §1, §2, §3

AML3 = assay: Cellular uptake of FITC-labeled peptide; assay type: cell-based; conditions: AML3, no carrier
Procedure: as §1, §2, §3

SALL4A and SALL4B = assay: SALL4 knock-down in endometrial cancer cells (Western blot, qRT-PCR); assay type: cell-based, human; conditions: AN3CA and HEC-1A
Text: In brief, the expression plasmids for human SALL4A and SALL4B were constructed using FUW-Luc-mCh-puro vector (FIG. 43A). SALL4A or SALL4B mutant preserving the same amino acid sequence, but containing triple-point mutations within the SALL4shRNA1 target nucleotide sequence, which renders the transgenes resistant to SALL4 shRNA targeting, were generated using QuikChange site-directed mutagenesis kit (Stratagene) and confirmed by sequencing. Short hairpin RNAs set for human SALL4 in pLKO.1-puro vector were purchased from Open Biosystems (RHS3979) and knockdown efficiency was further evaluated. Two of them, designated as SALL4shRNA1 and SALL4shRNA 2, were selected for subsequent experiments. The sequences for SALL4 shRNAs and Scramble shRNA are listed as following: SALL4shRNA1: […] (SEQ ID NO: 3); SALL4shRNA 2: CTATTTAGCCAAAGGCAAA (SEQ ID NO: 2); Scr-shRNA: […] (SEQ ID NO: 14)
To assess the biological functional role of SALL4 in endometrial cancer, first evaluated was SALL4 expression in a panel of six endometrial cancer cell lines using quantitative real-time PCR to select for appropriate models for our functional studies (FIG. 40). […]

SNU398 cells = conditions: after addition to cell culture plates
Text: Confocal microscopy was next used to study cellular uptake of TAT-WT by SNU398 cells in vitro.

CCTAAGGTTAAGTCGCCCTCG [scramble shRNA]
metastatic tumor formation (AN3CA cells): Four out of five

MSRRAQAKPQHI [Mut peptide, MSRRAQAKPQHI, reference compound]
peptide uptake (cells with peptide) (SNU-398): 60% (Ch) | peptide uptake (cells with peptide) (AML): 50% (Ch) | peptide uptake (cells with peptide) (SNU387): 60% (Ch) | peptide uptake (cells with peptide) (HuH-7): 60% (ch) | peptide uptake (cells with peptide) (HL60): ~50% | peptide uptake (cells with peptide) (CD34+): 50% (Ch) | peptide uptake (cells with peptide) (MCF7): 70% (Ch) | peptide uptake (cells with peptide) (KG1a): >15% | peptide uptake (cells with peptide) (AML3): ~10%

GCCTTGAAACAAGCCAAGCTA (expressed or natural sequence) [SALL4-sh1]
down-regulation of SALL4A and SALL4B (SALL4A and SALL4B): could down-regulate SALL4A and SALL4B efficiently

YGRKKRRQRRRMSRRKQAKPHI [TAT-WT, NH2-YGRKKRRQRRR-MSRRKQAKPHI-COOH]
time to localization within the nucleus (SNU398 cells): ≤ 15 min
